According to patent publication US20210084905A1, “METHODS AND COMPOSITIONS FOR AQUACULTURE” (priority 2018, published 2021):

What was measured:
[1] = tested on: V. cholerae O1 strain, H1; assay: sensitivity to the A603 phenazine; type: cell-based
From the text: GO annotations were not assigned to these genes thus they were not included in the hypergeometric and GSEA analyses. One gene (TMChrII_2378) encodes a protein with high structural conservation to heme monooxgenase and the other (TMChrI_2040) a dioxygenase that closely resembles a bleomycin resistance proteins. A second dioxygenase (TMChr1_3001) is also among the top induced genes. This family of dioxygenase proteins includes those that can bind and in some cases hydrolyze planar and aromatic antibacterial molecules including phenazines. Though amino acid sequence similarity is poor, the predicted structure of TMChr1_2040 is very similar to EphR, a protein that loosely binds phenazine in producer strains and confers resistance by binding molecules until export.

[2] = tested on: bacterial strains seeded into an agar soft overlay; assay: secretion assay, soft agar overlay (halo of inhibition); type: cell-based; details: secreted antibacterial compound
Description: Many other phenazine molecules including pyocyanin are shown to elicit antibacterial activity often by causing oxidative stress. To test whether the genes hit in the transposon insertion screen are required, two separate genes with insertions (orf6 & orf8) in the region of the operon were precisely deleted in A603 ΔvipA.
The spectrum of inhibition for the putative phenazine molecule was tested by seeding agar with a diverse set of laboratory and environmental strains using A603 ΔvipA and an isogenic double knockout A603 ΔvipA Δorf8 to score inhibition by appearance of a halo around A603 ΔvipA.

With `c1ccc2nc3ccccc3nc2c1` [A603 phenazine] the “sensitivity of V. cholerae O1 strain H1” value [1] was “very sensitive” and the “growth inhibition (halo) in soft agar overlay” value [2] was “broad spectrum antibacterial activity”.
